Residues, ends and D or L forms follow the SMILES beside them. *: point of attachment. Cbz = O=C(OCc1ccccc1)*
Columns and labels:
S1P receptor 1 (S1PR1) [1] = molecular target: T1, S1P receptor 1 (S1PR1) (Homo sapiens, UniProt P21453); experiment: S1PR1 protein expression in HPAEC by Western blot; type: cell-based; design: Cells were collected and S1PR1 expression level was detected by Western blot; endogenous in cells; host or cells: HPAEC (human pulmonary artery endothelial cells); settings: for S1PR1 expression level compared to control: 1 μM (SEW2871 10 μM), 4 h
Text: Cells were collected and S1PR1 expression level was detected by Western blot.

[2] = system: lung vascular leakage in RILI mice; experiment: ViSen FMT lung imaging of intravascular probe extravasation in RILI mice; type: in vivo, mouse; settings: 0.1 mg/kg, 25 Gy, 6 weeks
Experimental: Lung imaging studies were also performed with assessment of RILI-induced extravasation of an intravascular probe.
To assess microvascular changes associated with RILI in real-time, mice were imaged with ViSen FMT 1500 Quantitative Tomography In Vivo Imaging System. Intergisens^750 NIR (ViSen Medicals, Bedford, Mass.) was used as a probe, which targets the vasculature as a selective non-peptide small molecule integrin αvβ3 antagonist and a near-infrared fluorochrome. Mice were injected with probe ([…], IV) at 6 weeks post radiation and imaged 24 hrs later. Probe intensity was quantified using TrueQuant 3D software (VisSen Medicals).

β-arrestin = settings: 1 μM (SEW2871 10 μM; (S)-FTY720-phosphonate 1, 10, 50 μM), 5 h
Experimental: After another 2 h-incubation with fluorescence substrate, the fluorescence intensity (blue and green channels) were detected and the blue/green emission ratio was used as the activation indicator.

S1P receptor 1 (S1PR1) [3] = molecular target: T1, S1P receptor 1 (S1PR1); experiment: Ubiquitination of S1PR1 in HPAEC (immunoprecipitation, ubiquitin Ab); settings: for ubiquitination of S1PR1 at 2 h: 1 μM (SEW2871 10 μM)
Text: S1PR1 was immunoprecipitated by S1PR1Ab, and ubiquitination of S1PR1 was detected by ubiquitin Ab.

[4] = system: radiation-induced lung injury (RILI) in C57BL/6 mice; experiment: Murine model of RILI: BAL protein, BAL cell counts, BAL cytokines, EBD extravasation, body weight, lung histology; type: in vivo, mouse; settings: 6 weeks
Experimental: Eight to 10-week-old C57BL/6J mice (Jackson Labs, Bar Harbor, Me.) were used for all studies in accordance with the University of Chicago Institutional Animal Care & Use Committee guidelines.
At the termination of each experiment, animals were euthanized by exsanguination under anesthesia in accordance with institutional guidelines. Both lungs were lavaged with 1.0 mL of Hank's buffered saline solution with the fluid allowed to equilibrate for 10 s before withdrawing. The pulmonary vasculature was perfused clear via the pulmonary artery with sterile phosphate-buffered saline (PBS). Both lungs were excised, weighed, and snap-frozen in liquid nitrogen for subsequent analysis. The BAL fluid collected was centrifuged at 500×g for 20 min at 4° C., and the supernatant was removed and recentrifuged at 12,000×g before snap-freezing. Cell pellets were resuspended in 0.5 mL of red blood cell lysis buffer (ACK Lysing Buffer; BioSource International, Camarillo, Calif.) for 20 min and then repelleted by centrifugation at 2500 rpm for 20 min at 4° C. The supernatant was decanted, and the cell pellet was resuspended in 0.2 mL of PBS for cellular analysis using a standard hemacytometer technique. A total of 300 BAL cells per slide were counted for cell differentials using a Diff-Quick-stained kit (Baxter Diagnostics, McGaw Park, Ill.). BAL protein concentrations were determined by a colorimetric BCA assay. Albumin concentrations in the BAL at 1:1000 and 1:100 dilutions, respectively, were quantitated by ELISA (Bethyl Labs, Montgomery, Tex.). To measure cytokines and chemokines, the BAL fluid was assayed with a Bioplex mouse cytokine kit (Bio-Rad, Hercules, Calif.) in accordance with the manufacturer's instructions.
All other chemicals were analytical or cell-culture grade and were obtained from various commercial sources. Evans Blue dye conjugated to albumin (EBA) was prepared by dissolving EBD to a concentration of 0.5% (5 mg/mL or 5.2 mM) in phosphate-buffered saline (PBS) (Ca^2+-Mg^2+ free; Invitrogen Corporation, Carlsbad, Calif.). To this solution, BSA was added to a final concentration of 4% (40 mg/mL or 0.6 mM), mixed well by stirring with a magnetic bar, allowed to stand for 30 min, and then sterile-filtered through a 0.22-μm syringe filter. The conjugate was stored in small aliquots at −80° C. To prevent cross-contamination, each aliquot was used only once in one animal and then discarded. 4, 6, 8, or 12 weeks after irradiation, the animals were injected with EBA via the jugular vein. At the end of exposure, the pulmonary circulation was flushed and lungs were harvested. Formamide extracts of lungs were prepared, with the initial modification that the homogenates were centrifuged at 12,000×g. Centrifugation at this relative centrifugal force (RCF) produced a compact pellet that allowed accurate measurement of the recovered volumes. Accurate estimation of such volumes is critical for calculating the final tissue dilution factor. Lungs, kidneys, and hearts from mice that were not injected with EBA were similarly extracted, to calculate the tissue-specific correction factors. […] Linear regression equations between absorbance at 740 nm (X) and 620 nm (Y) in tissue extracts of animals untreated with EBA were considered to be the tissue-specific correction factors. […] The EB concentration read in mg/mL was converted to μg/g wet weight of lungs using the dilution factor of the original homogenate as described above.
Eight to 10-week-old C57BL/6J mice (Jackson Labs, Bar Harbor, Me.) were used for all studies in accordance with the University of Chicago Institutional Animal Care & Use Committee guidelines. […] (FIG. 4A). Bronchoalveolar lavage (BAL) was performed as described above. BAL protein concentrations were determined by a colorimetric BCA assay. Albumin concentrations in the BAL at 1:1000 and 1:100 dilutions, respectively, were quantitated by ELISA (Bethyl Labs, Montgomery, Tex.).

HPAEC [5] = experiment: Pharmacologic inhibitor effects on barrier enhancement (TER); settings: 1 μM agonist, 60 min; for % Inhibition of Maximal TER Response (of Agonist-Only Control), PTX: 2-h preincubation 100 ng/ml PTX; for % Inhibition of Maximal TER Response (of Agonist-Only Control), MβCD: 2-h preincubation 2 mM MβCD; for % Inhibition of Maximal TER Response (of Agonist-Only Control), Gen: 30-min preincubation 200 μM genistein
Experimental: Endothelial cells were grown to confluence in polycarbonate wells containing evaporated gold microelectrodes (surface area, 10^−3 cm^2) in series with a large gold counter electrode (1 cm^2) connected to a phase-sensitive lock-in amplifier. Current was applied across the electrodes by a 4,000-Hz AC voltage source with amplitude of 1 V in series with a 1 MΩ resistance to approximate a constant current source (˜1 μA). The in-phase and out-of-phase voltages between the electrodes were monitored in real time with the lock-in amplifier and subsequently converted to scalar measurements of transendothelial impedance, of which resistance was the primary focus. TER was monitored for 30 minutes to establish a baseline resistance (R0) which, for bovine pulmonary endothelium, was typically between 8 to 12×10^3Ω (wells with R0<7×10^3Ω were rejected). As cells adhere and spread out on the microelectrode, TER increases (maximal at confluence), whereas cell retraction, rounding, or loss of adhesion is reflected by a decrease in TER. These measurements provide a highly sensitive biophysical assay that indicates the state of cell shape and focal adhesion. Values from each microelectrode were pooled at discrete time points and plotted versus time as the mean±SE of the mean. TER values from each microelectrode were pooled as discrete time points and plotted versus time as the mean±S.E.M.
In this experiment, confluent HPAEC were plated on gold microelectrodes and then stimulated with 1 μM S1P, FTY720, 1R, 1S, 2R, or 2S after either a 2-h preincubation with 100 ng/ml PTX, 30-min preincubation with 200 μM genistein (Gen), or 2-h preincubation with 2 mM MβCD or their respective vehicle controls. Data were pooled from multiple TER experiments (4-10 independent experiments per condition) and expressed as percentage inhibition of maximal barrier enhancement at 60 min relative to agonist-only control.

ERK = experiment: Western blotting of HPAEC lysates for phospho-ERK; type: cell-based, human; settings: 5 min
Experimental: (§1) After treatment as outlined for individual experiments, confluent HPAEC were lysed for Western blotting with phospho-MLC, pan-MLC, phospho-ERK, or pan-ERK antibodies. […] Membranes were then immunoblotted with primary antibodies (1:500-1000, 4° C., overnight) followed by secondary antibodies conjugated to horseradish peroxidase (1:5000, room temperature, 30 min) and detected with enhanced chemiluminescence (Pierce ECL or SuperSignal West Dura; Pierce Biotechnology, Rockford, Ill.) on Biomax MR film (Carestream Health, Rochester, N.Y.).

HPAEC [6] = experiment: Transendothelial electrical resistance (TER) of HPAEC; type: cell-based, human; settings: for maximal percentage TER change compared with S1P and FTY720 / maximal TER change: within 60 min; for maximal TER change: 10 μM
Experimental: Cells were grown at 37° C. in a 5% CO2 incubator, and passages 6 to 9 were used for experiments. Media were changed 1 day before experimentation.

MLC = experiment: Western blotting of HPAEC lysates for phospho-MLC; type: cell-based, human; settings: 5 min
Experimental: as §1

HPAEC [7] = experiment: Transwell transendothelial permeability assay (FITC-dextran); type: cell-based, human; settings: 1 μM (3R, 3S 25 μM), 1 h before FITC-dextran, 2-h incubation
Experimental: As a complementary approach to further characterize the barrier-protective effects of these FTY720 analogs in vitro, the permeability of FITC-labeled dextran across the pulmonary EC monolayer was assayed in response to treatment by the FTY720 analogs. […] Data were normalized to unstimulated control. n=3 independent experiments per condition; *, p<0.01 versus unstimulated condition (see FIG. 26).

[8] = 0.01 or 0.1 mg/kg i.p. 2×/wk from 1 wk before irradiation (20 Gy)

T1 sequence (P21453 whole entry): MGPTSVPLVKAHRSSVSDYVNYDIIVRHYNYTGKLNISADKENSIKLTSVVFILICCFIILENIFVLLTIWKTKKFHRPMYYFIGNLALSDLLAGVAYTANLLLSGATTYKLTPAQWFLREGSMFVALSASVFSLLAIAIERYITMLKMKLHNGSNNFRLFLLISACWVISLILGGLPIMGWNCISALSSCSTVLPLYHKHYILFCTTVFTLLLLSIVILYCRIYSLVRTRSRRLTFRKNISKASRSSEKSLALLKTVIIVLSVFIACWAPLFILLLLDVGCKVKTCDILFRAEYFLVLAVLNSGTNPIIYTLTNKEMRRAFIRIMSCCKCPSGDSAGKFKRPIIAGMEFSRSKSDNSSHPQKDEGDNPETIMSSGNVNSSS

ubiquitination of S1PR1 at 2 h (S1P receptor 1 (S1PR1) [3])	S1PR1 expression level compared to control (S1P receptor 1 (S1PR1) [1]) [%]	SMILES	activation of β-arrestin (blue/green emission ratio) (β-arrestin)	% Inhibition of Maximal TER Response (of Agonist-Only Control), PTX (HPAEC [5])	% Inhibition of Maximal TER Response (of Agonist-Only Control), MβCD (HPAEC [5])	% Inhibition of Maximal TER Response (of Agonist-Only Control), Gen (HPAEC [5])	ERK phosphorylation (ERK)	maximal percentage TER change compared with S1P and FTY720 (HPAEC [6]; 1 μM)	maximal TER change (HPAEC [6])	also measured
		CC(C)C[C@@H](C=O)NC(=O)[C@H](CC(C)C)NC(=O)[C@H](CC(C)C)NC(=O)OCc1ccccc1 [MG132, reference compound] (Cbz-Leu-Leu-Leu-aldehyde)								S1PR1 expression, MG132 alone (S1P receptor 1 (S1PR1) [1]; 10 μM): did not affect the expression of S1PR1
significant ubiquitination	30.3	FC(F)(F)c1cccc(-c2noc(-c3cc(-c4ccccc4)c(C(F)(F)F)s3)n2)c1 [SEW2871, 5-[4-phenyl-5-(trifluoromethyl)-2-thienyl]-3-[3-(trifluoromethyl)phenyl]-1,2,4-oxadiazole]	strongly activated							radiation-induced probe extravasation (probe intensity), FMT imaging [2]: significant decreases; lung histology: inflammatory cell infiltration and interstitial edema induced by radiation ([4]; 0.1 mg/kg i.p. 2×/wk, 25 Gy): to a lesser extent; BAL cell counts vs RILI-challenged controls [4, 8]: dose-dependent protective effect; BAL protein vs RILI-challenged controls [4, 8]: dose-dependent protective effect
significant ubiquitination	47.2	CCCCCCCCc1ccc(CC[C@](N)(CO)CCP(=O)(O)O)cc1 [1R, (R)-3-amino-3-(hydroxymethyl)-5-(4-octylphenyl)pentylphosphonic acid]	strongly activated	79.2 (±5.9) %	67.0 (±19.7) %	54.3 (±14.7) %	increased phosphorylation of ERK	greater maximal percentage TER change	even greater maximal TER elevation	ubiquitination of S1PR1 at 1 h (S1P receptor 1 (S1PR1) [3]; 1 μM, 1 h): only slight ubiquitination; S1PR1 expression, agonist without MG132 (S1P receptor 1 (S1PR1) [1]; 1 μM, 4 h (FIG. 18)): 66.3%; S1PR1 expression, agonist after MG132 pretreatment (S1P receptor 1 (S1PR1) [1]; MG132 10 μM 2 h, then 1 μM agonist 4 h): 94.2%
		CCCCCCCCc1ccc(CC[C@@](N)(C=CP(=O)(O)O)CO)cc1 [2R, (R)-3-amino-3-(hydroxymethyl)-5-(4-octylphenyl)pent-1-enylphosphonic acid]		88.1 (±7.8) %	87.4 (±5.4) %	41.1 (±12.2) %	increased phosphorylation of ERK	greater maximal percentage TER change	even greater maximal TER elevation	
		CCCCCCCCc1ccc(CC[C@](N)(C=CP(=O)(O)O)CO)cc1 [2S, (S)-3-amino-3-(hydroxymethyl)-5-(4-octylphenyl)pent-1-enylphosphonic acid]		76.3 (±12.0) %	95.2 (±1.0) %	91.6 (±2.4) %	failed to induce phosphorylation		somewhat barrier-disruptive	
		CCCCCCCCc1ccc(CCC(O)(CN)CCO)cc1 (centres unmarked) [3R, 3-(aminomethyl)-5-(4-octylphenyl)pentane-1,3-diol]					did not increase ERK or MLC phosphorylation			MLC phosphorylation (MLC): did not increase ERK or MLC phosphorylation; TER response (tracing) (HPAEC [6]; 1 μM): barrier-disruptive; EC permeability to FITC-dextran vs control EC (HPAEC [7]): increase EC permeability

Source: patent US20130079309A1, “Method Of Treating Acute Lung Injury Using Sphingosine 1 Phosphate Analogs Or Sphingosine 1 Phosphate Receptor Agonists” (The Board of Trustees of the University of Illinois, priority 2010, published 2013)
